Values joined by “and” are separate entries in the source; they are usually repeats but may differ in a detail not shown here. Equal entries are not always repeated. Toxic doses and inconclusive results are not listed.
Tested on: BDF1 mice, P388 leukemia ip, median survival T/C
Test: NCI In Vivo Anticancer Drug Screen. Data for tumor model P388 Leukemia (intraperitoneal) in B6D2F1 (BDF1) mice
Conditions: endpoint: median survival time, higher = longer survival
Experimental: The antitumor activity of compounds was measured in mice bearing transplantable tumors. Survival or tumor size were measured and the results are expressed as the measurement made in the treated group (T) divided by the measurement made in the vehicle treated control group (C). The tumor model used in this assay is P388 Leukemia (intraperitoneal) in B6D2F1 (BDF1) mice

[1] = dose: 25.0 mg/kg/injection, schedule: Q04DX003 (ip), vehicle: saline
[2] = dose: 12.5 mg/kg/injection, schedule: Q01DX009 (ip), vehicle: saline
[3] = dose: 25.0 mg/kg/injection, schedule: Q01DX009 (ip), vehicle: saline
[4] = dose: 50.0 mg/kg/injection, schedule: Q01DX009 (ip), vehicle: saline
[5] = dose: 100.0 mg/kg/injection, schedule: Q04DX003 (ip), vehicle: saline
[6] = dose: 200.0 mg/kg/injection, schedule: Q04DX003 (ip), vehicle: saline
[7] = dose: 100.0 mg/kg/injection, schedule: Q01DX009 (ip), vehicle: saline with Tween-80
[8] = dose: 200.0 mg/kg/injection, schedule: Q01DX009 (ip), vehicle: saline with Tween-80
[9] = dose: 400.0 mg/kg/injection, schedule: Q01DX009 (ip), vehicle: saline with Tween-80
[10] = dose: 100.0 mg/kg/injection, schedule: Q04DX003 (ip), vehicle: saline with Tween-80
[11] = dose: 200.0 mg/kg/injection, schedule: Q04DX003 (ip), vehicle: saline with Tween-80

Structure (SMILES): CCN(CC)CCNc1ccc(N=Nc2cnc3ccccc3c2)c2ccccc12
- T/C (dose: 75.0 mg/kg/injection, schedule: Q01DX009 (ip), vehicle: Klucel (hydroxypropylcellulose) (HPC)): 95 % of control
- T/C (dose: 115.0 mg/kg/injection, schedule: Q01DX009 (ip), vehicle: Klucel (hydroxypropylcellulose) (HPC)): 100 % of control

Structure (SMILES): CC(C)(C)N=Cc1ccccc1O.CC(C)(C)N=Cc1ccccc1O.[Cu]
- T/C (dose: 6.25 mg/kg/injection, schedule: Q04DX003 (ip), vehicle: saline): 100 % of control
- T/C (dose: 12.5 mg/kg/injection, schedule: Q04DX003 (ip), vehicle: saline): 90 % of control
- T/C [1]: 95 % of control

Structure (SMILES): Nc1cc2c(c[n+](Cc3ccccc3)c3ccccc23)c2ccccc12
- T/C (dose: 3.13 mg/kg/injection, schedule: Q04DX003 (ip), vehicle: other): 98 % of control

Structure (SMILES): COc1ccc(OCC(O)CN2CCN(c3ccc(Cl)cc3)CC2)cc1 (centres undefined)
- T/C (dose: 6.25 mg/kg/injection, schedule: Q01DX009 (ip), vehicle: Klucel (hydroxypropylcellulose) (HPC)): 100 % of control
- T/C (dose: 12.5 mg/kg/injection, schedule: Q01DX009 (ip), vehicle: Klucel (hydroxypropylcellulose) (HPC)): 95 % of control
- T/C (dose: 25.0 mg/kg/injection, schedule: Q01DX009 (ip), vehicle: Klucel (hydroxypropylcellulose) (HPC)): 86 % of control

Structure (SMILES): Brc1ccc(C[n+]2ccccc2)cc1
- T/C (dose: 6.25 mg/kg/injection, schedule: Q01DX009 (ip), vehicle: saline): 91 % of control
- T/C [2]: 87 % of control
- T/C [3]: 95 % of control
- T/C [1]: 100 % of control

Structure (SMILES): CC1=CC(O)(C2(O)C=C(C)CC(C)(C)C2)CC(C)(C)C1 (centres undefined)
- T/C (dose: 100.0 mg/kg/injection, schedule: Q01DX009 (ip), vehicle: other): 94 % of control
- T/C (dose: 200.0 mg/kg/injection, schedule: Q01DX009 (ip), vehicle: other): 108 % of control
- T/C (dose: 400.0 mg/kg/injection, schedule: Q01DX009 (ip), vehicle: other): 103 % of control

Structure (SMILES): OC(CN1CC1)c1ccccc1 (centres undefined)
- T/C (dose: 20.0 mg/kg/injection, schedule: Q04DX003 (ip), vehicle: saline): 90 % of control
- T/C (dose: 40.0 mg/kg/injection, schedule: Q04DX003 (ip), vehicle: saline): 95 % of control
- T/C (dose: 80.0 mg/kg/injection, schedule: Q04DX003 (ip), vehicle: saline): 100 % of control

Structure (SMILES): CC1(C)CC(=O)c2ccccc21
- T/C [3]: 99 % of control
- T/C [4]: 115 % of control
- T/C (dose: 50.0 mg/kg/injection, schedule: Q04DX003 (ip), vehicle: saline): 102 % of control
- T/C (dose: 100.0 mg/kg/injection, schedule: Q01DX009 (ip), vehicle: saline): 95 % of control
- T/C [5]: 100 % of control
- T/C [6]: 109 % of control

Structure (SMILES): CCCCCCCCCCCC(=O)c1ccc(Cl)cc1
- T/C [7]: 91 % of control
- T/C [8]: 92 % of control
- T/C [9]: 109 % of control

Structure (SMILES): COc1ccc(C2(C#N)CC2)cc1
- T/C [7]: 95 % of control
- T/C [10]: 91 % of control
- T/C [8]: 100 % of control
- T/C [11]: 100 % of control
- T/C [9]: 104 % of control
- T/C (dose: 400.0 mg/kg/injection, schedule: Q04DX003 (ip), vehicle: saline with Tween-80): 108 % of control

Structure (SMILES): CCC(C)(O)C#CC(C)(O)CC (centres undefined)
- T/C [5]: 91 % of control
- T/C [6]: 91 % of control
- T/C (dose: 400.0 mg/kg/injection, schedule: Q04DX003 (ip), vehicle: saline): 87 % of control

Structure (SMILES): CCNc1c([N+](=O)[O-])cc(S(=O)(=O)O)cc1[N+](=O)[O-]
- T/C (dose: 50.0 mg/kg/injection, schedule: Q04DX003 (ip), vehicle: saline sonified): 100 % of control
- T/C (dose: 100.0 mg/kg/injection, schedule: Q04DX003 (ip), vehicle: saline sonified): 104 % of control
- T/C (dose: 200.0 mg/kg/injection, schedule: Q04DX003 (ip), vehicle: saline sonified): 104 % of control

Structure (SMILES): O=C(O)CC(O)(CC(=O)O)C(=O)O
- T/C (dose: 50.0 mg/kg/injection, schedule: Q02DX005 (ip), vehicle: water): 123 % of control
- T/C (dose: 100.0 mg/kg/injection, schedule: Q02DX005 (ip), vehicle: water): 114 % of control
- T/C (dose: 400.0 mg/kg/injection, schedule: Q02DX005 (ip), vehicle: water): 94 % of control

Structure (SMILES): C(COCCOCC1CO1)OCCOCC1CO1 (centres undefined)
- T/C (dose: 50.0 mg/kg/injection, schedule: Q01DX010 (ip), vehicle: saline): 109 % of control
- T/C (dose: 200.0 mg/kg/injection, schedule: Q01DX010 (ip), vehicle: saline): 150 % of control
- T/C (dose: 400.0 mg/kg/injection, schedule: Q01DX010 (ip), vehicle: saline): 154 % of control and 172 % of control

Structure (SMILES): CC[C@@]1(O)C[C@H](OC2CC(N(C)C)C(OC3CC(O)C(OC4CCC(=O)C(C)O4)C(C)O3)C(C)O2)c2c(cc3c(c2O)C(=O)c2c(O)cccc2C3=O)[C@H]1C(=O)OC (some centres undefined)
- T/C (dose: 0.25 mg/kg/injection, schedule: Q01DX009 (ip), vehicle: water): 100 % of control
- T/C (dose: 0.5 mg/kg/injection, schedule: Q01DX009 (ip), vehicle: saline): 116 % of control
- T/C (dose: 2.0 mg/kg/injection, schedule: Q01DX009 (ip), vehicle: water): 154 % of control
- T/C (dose: 3.24 mg/kg/injection, schedule: Q04DX003 (ip), vehicle: water): 169 % of control
- T/C (dose: 4.0 mg/kg/injection, schedule: Q01DX009 (ip), vehicle: saline): 166 % of control
- T/C (dose: 4.0 mg/kg/injection, schedule: Q01DX009 (ip), vehicle: water): 194 % of control
- T/C (dose: 4.7 mg/kg/injection, schedule: Q04DX003 (ip), vehicle: water): 116 % of control
- T/C (dose: 5.4 mg/kg/injection, schedule: Q04DX003 (ip), vehicle: water): 197 % of control
- T/C (dose: 8.0 mg/kg/injection, schedule: Q01DX009 (ip), vehicle: saline): 236 % of control
- T/C (dose: 9.0 mg/kg/injection, schedule: Q04DX003 (ip), vehicle: water): 203 % of control
- T/C (dose: 9.4 mg/kg/injection, schedule: Q04DX003 (ip), vehicle: water): 184 % of control

Structure (SMILES): Cc1ccc(Cl)cc1NC(=O)c1ccccc1C(=O)O
- T/C (dose: 100.0 mg/kg/injection, schedule: Q04DX003 (ip), vehicle: Klucel (hydroxypropylcellulose) (HPC)): 91 % of control
- T/C (dose: 200.0 mg/kg/injection, schedule: Q04DX003 (ip), vehicle: Klucel (hydroxypropylcellulose) (HPC)): 95 % of control
- T/C (dose: 400.0 mg/kg/injection, schedule: Q04DX003 (ip), vehicle: Klucel (hydroxypropylcellulose) (HPC)): 91 % of control

Structure (SMILES): NC(Cc1ccc(N(CCCl)CCCl)cc1)C(=O)O (centres undefined)
- T/C (dose: 0.5 mg/kg/injection, schedule: Q01DX009 (ip), vehicle: Klucel (hydroxypropylcellulose) (HPC)): 179 % of control
- T/C (dose: 1.0 mg/kg/injection, schedule: Q01DX009 (ip), vehicle: Klucel (hydroxypropylcellulose) (HPC)): 222 % of control
- T/C (dose: 1.25 mg/kg/injection, schedule: Q01DX010 (ip), vehicle: saline): 181 % of control and 208 % of control
- T/C (dose: 2.0 mg/kg/injection, schedule: Q01DX009 (ip), vehicle: Klucel (hydroxypropylcellulose) (HPC)): 239 % of control
- T/C (dose: 2.0 mg/kg/injection, schedule: Q01DX010 (ip), vehicle: other): 300 % of control
- T/C (dose: 2.5 mg/kg/injection, schedule: Q01DX010 (ip), vehicle: saline): 209 % of control and 216 % of control
- T/C (dose: 4.0 mg/kg/injection, schedule: Q01DX009 (ip), vehicle: Klucel (hydroxypropylcellulose) (HPC)): 256 % of control
- T/C (dose: 4.0 mg/kg/injection, schedule: Q01DX010 (ip), vehicle: other): 250 % of control
- T/C (dose: 5.0 mg/kg/injection, schedule: Q01DX010 (ip), vehicle: saline): 233 % of control and 286 % of control
- T/C (dose: 8.0 mg/kg/injection, schedule: Q01DX010 (ip), vehicle: other): 113 % of control
- T/C (dose: 10.0 mg/kg/injection, schedule: Q01DX010 (ip), vehicle: saline): 100 % of control
- T/C (dose: 16.0 mg/kg/injection, schedule: Q01DX010 (ip), vehicle: other): 90 % of control

Structure (SMILES): c1cc2cccc3c2c(c1)c1sc2c4cccc5cccc(c54)c2c31
- T/C [10]: 91 % of control
- T/C [11]: 100 % of control

Structure (SMILES): OCCN1CCN(CCCN2c3ccccc3Sc3cccnc32)CC1
- T/C [2]: 104 % of control
- T/C (dose: 18.75 mg/kg/injection, schedule: Q04DX003 (ip), vehicle: saline): 96 % of control
- T/C [3]: 108 % of control and 110 % of control
- T/C (dose: 37.5 mg/kg/injection, schedule: Q04DX003 (ip), vehicle: saline): 107 % of control
- T/C [4]: 122 % of control

From PubChem BioAssay AID328 (DTP/NCI, 2004)
